We go through 7 molecules from patent publication US6197797A, “Cyanoguanidines as cell proliferation inhibitors” (Leo Pharmaceutical Products Ltd. A/S (L.o slashed.vens …, priority 1997, dated 2001).

In assay [1] the test system is human breast cancer (MCF-7). As to the kind of experiment: Inhibition of tumour cell proliferation in vitro ([3H]thymidine incorporation), MCF-7. The format is cell-based. To be noted: MCF7, MCF-7, 24 hours, read-out: The median inhibition concentration (IC50, nM) of MCF-7. The protocol:
(§1) The inhibition of tumour cell proliferation was studied using different types of human cancer cell lines. The cell lines under investigation were small cell lung carcinoma (NYH), non small cell lung carcinoma (NCI-H460), and breast cancer (MCF-7) using the following general procedure.
(§2) The cells were cultured in vitro for 24 hours in the presence of the compound under investigation. DNA synthesis was measured by incorporation of [3H]thymidine, and the median inhibitory concentrations (IC50) of the compounds were calculated.
For orientation: Dividing cells build labelled thymidine or BrdU into new DNA.

Assay [2] has as its system human non small cell lung carcinoma (NCI-H460). As to the kind of experiment: Inhibition of tumour cell proliferation in vitro ([3H]thymidine incorporation), NCI-H460. The format is cell-based. The note with it: NCI-H460, 24 hours, read-out: The median inhibition concentration (IC50, nM) of NCI-H460. The method, then: as §1, §2
In assay [3] the test system is human small cell lung carcinoma (NYH). Nature of the assay: Inhibition of tumour cell proliferation in vitro ([3H]thymidine incorporation), NYH. The format is cell-based. The note with it: 24 hours, read-out: The median inhibition concentration (IC50, nM) of NYH. The method, then:
as §1, §2

Assay [4] has as its system Yoshida sarcoma tumour-bearing rats. As to the kind of experiment: Prolongation of survival time of tumour-bearing rats. The format is in vivo, LEW/Mol inbred female rats. The method, then:
The prolongation of survival time of tumour-bearing rats was studied in LEW/Mol inbred female rats inoculated with Yoshida sarcoma cells in a number of 2×10^7 cells. Tumour-bearing rats (6 animals per group) were dosed orally once daily from day 3 after the transfer of tumour cells and until death or for a maximum of 21 days or until the body weights had increased by 10% as a consequence of tumour proliferation. The mean survival day of treated versus non-treated rats is used to calculate ILS (Increased Life Span). ILS=((mean treated/mean control)-1)*100%.

Where [5] appears, read: 20 mg/kg p.o. once daily from day 3, ILS=((mean treated/mean control)-1)*100%.

Consider `N#CN=C(NCCCC/C=C\c1ccccc1)Nc1ccncc1` [Example 10, (Z)-N-Cyano-N'-(6-phenylhex-5-enyl)-N"-4-pyridylguanidine], for which the IC50 in assay [1] is 54 nM; in assay [2], 135 nM; in assay [3], 7.3 nM. Besides, the “Increased life span (ILS) %” value in assay [4] (setting [5]) stood at 35%.
Consider `CCCCCCCCCCCCNC(=Nc1ccncc1)NC#N` [Example 18, N-Cyano-N'-dodecyl-N"-4-pyridylguanidine], for which the IC50 stood at 19 nM in assay [1], 61 nM in assay [2] and 5 nM in assay [3].
For `N#CNC(=Nc1ccncc1)NCCCCC#Cc1ccccc1` [Example 14, N-Cyano-N'-(6-phenylhex-5-ynyl)-N"-4-pyridylguanidine], in that order: 74 nM, 78 nM and 6.1 nM.
The matching figures for `N#CNC(=Nc1ccncc1)NCCCCCCCCCc1ccccc1` [Example 5, N-Cyano-N'-(9-phenylnonyl)-N"-4-pyridylguanidine]: 29 nM, 5.8 nM and 5.3 nM.
With `N#CN=C(NCC/C=C/C=C/c1ccccc1)Nc1ccncc1` [Example 12, (E,E)-N-Cyano-N'-(6-phenylhex-3,5-dienyl)-N"-4-pyridylguanidine], the IC50 was determined as 138 nM in assay [1], 49 nM in assay [2] and 5.5 nM in assay [3].
As to `N#CNC(=Nc1ccncc1)NCCCCCOc1ccccc1` [prior art B, N-Cyano-N'-(5-phenoxypentyl)-N"-4-pyridylguanidine, reference compound], in assay [4] (50 mg/kg p.o. once daily from day 3, ILS=((mean treated/mean control)-1)*100%), the “Increased life span (ILS) %” value was 35%.
For `N#CNC(=Nc1ccncc1)NCCCCCc1ccccc1` [Example 1, N-Cyano-N'-(5-phenylpentyl)N"-4-pyridylguanidine], the IC50 in assay [1] is 40 nM. The “Increased life span (ILS) %” value in assay [4] (setting [5]) was determined as 49%.
